Test results published in patent US9681664B2, “Macrocyclic picolinamides as fungicides” (Dow Agrosciences LLC, priority 2012, dated 2017).
Where two headings read alike, the source gives them in different places.

Columns and labels:
Format in all cases: in vivo
[1] = test system: Magnaporthe grisea; Anamorph: Pyricularia oryzae; test: whole plant or invertebrate; conditions: 24 h, read-out: PYRIOR 1 DP disease control
[2] = test system: Mycosphaerella graminicola; Anamorph: Septoria tritici; test: Leaf blotch of wheat (SEPTTR) disease control on wheat seedlings; conditions: Zymoseptoria tritici; for pest or weed control at 100 ppm: High volume application; for pest or weed control at 121.5 g/ha: Wheat Leaf Blotch, low volume application, 121.5 g/H
In short: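 Wheat seedlings (Yuma, first leaf emerged) sprayed to run-off with compound in acetone/water with 110 ppm Triton X-100, or track-sprayed as EC with 0.1% Trycol 5941. Septoria tritici spores inoculated before or after treatment. Dew chambers, then 20 °C greenhouse. Percent disease control derived from severity (0–100%) relative to untreated plants.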

[3] = test system: Erysiphe cichoracearum; test: Powdery mildew of cucumber (ERYSCI) disease control; conditions: Golovinomyces cichoracearum, 24 h, 1 Day Protectant, high volume, read-out: Disease Control ERYSCI 1 DP
Procedure: Technical grades of materials were dissolved in acetone, which were then mixed with nine volumes of water containing 110 ppm Triton X-100. The fungicide solutions were applied onto wheat seedlings using an automated booth sprayer to run-off. All sprayed plants were allowed to air dry prior to further handling. All fungicides were evaluated using the aforementioned method for their activity vs. all target diseases. Wheat leaf blotch and brown rust activity were also evaluated using track spray applications, in which case the fungicides were formulated as EC formulations, containing 0.1% Trycol 5941 in the spray solutions. Cucumber seedlings (variety Bush Pickle) were grown in soil-less Metro mix, with one plant per pot, and used in the test when 12 to 14 days old. Plants were inoculated with a spore suspension 24 hr following fungicide treatments. After inoculation the plants remained in the greenhouse set at 20° C. until disease was fully expressed. Fungicide formulation, application and disease assessment on the sprayed leaves followed the procedures as described in the Example A.

[4] = test system: Phakopsora pachyrhizi; test: Asian soybean rust (PHAKPA) disease control; conditions: topical, high volume
In short: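 Compounds in acetone diluted with nine volumes water containing 0.011% Tween 20, sprayed to run-off on two-week-old Williams 82 soybean seedlings, inoculated 3 days before or 1 day after treatment. Plants held 24 h in dark dew room at 22 °C, 100% RH, then at 23 °C; disease severity scored on sprayed leaves.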

[5] = test system: Alternaria solani; test: Tomato early blight (ALTESO) disease control; conditions: 24 h, 1 Day Protectant, high volume, read-out: Disease Control ALTESO 1 DP
Procedure: Technical grades of materials were dissolved in acetone, which were then mixed with nine volumes of water containing 110 ppm Triton X-100. The fungicide solutions were applied onto wheat seedlings using an automated booth sprayer to run-off. All sprayed plants were allowed to air dry prior to further handling. All fungicides were evaluated using the aforementioned method for their activity vs. all target diseases. Wheat leaf blotch and brown rust activity were also evaluated using track spray applications, in which case the fungicides were formulated as EC formulations, containing 0.1% Trycol 5941 in the spray solutions. Tomato plants (variety Outdoor girl) were propagated in soil-less Metro mix, with each pot having one plant, and used when 12 to 14 days old. Test plants were inoculated with an aqueous spore suspension of Alternaria solani 24 hr after fungicide treatments. After inoculation the plants were kept in 100% relative humidity (one day in a dark dew chamber followed by two to three days in a lighted dew chamber at 20° C.) to permit spores to germinate and infect the leaf. The plants were then transferred to a growth room at 22° C. for disease to develop. Fungicide formulation, application and disease assessment on the sprayed leaves followed the procedures as described in the Example A.

[6] = test system: Glomerella lagenarium; Anamorph: Colletotrichum lagenarium; test: Cucumber anthracnose (COLLLA) disease control; conditions: Colletotrichum orbiculare, 24 h, 1 Day Protectant, high volume, read-out: Disease Control COLLLA 1 DP
Procedure: Technical grades of materials were dissolved in acetone, which were then mixed with nine volumes of water containing 110 ppm Triton X-100. The fungicide solutions were applied onto wheat seedlings using an automated booth sprayer to run-off. All sprayed plants were allowed to air dry prior to further handling. All fungicides were evaluated using the aforementioned method for their activity vs. all target diseases. Wheat leaf blotch and brown rust activity were also evaluated using track spray applications, in which case the fungicides were formulated as EC formulations, containing 0.1% Trycol 5941 in the spray solutions. Cucumber seedlings (variety Bush Pickle) were propagated in soil-less Metro mix, with each pot having one plant, and used in the test when 12 to 14 days old. Test plants were inoculated with an aqueous spore suspension of Colletotrichum lagenarium 24 hr after fungicide treatments. After inoculation the plants were kept in a dew room at 22° C. with 100% relative humidity for 48 hr to permit spores to germinate and infect the leaf. The plants were then transferred to a growth room set at 22° C. for disease to develop. Fungicide formulation, application and disease assessment on the sprayed leaves followed the procedures as described in the Example A.

[7] = 24 h, 1 Day Protectant, read-out: SEPTTR 1DP disease control
[8] = 72 h, 3 Day Curative, read-out: SEPTTR 3DC disease control
[9] = 24 h, 1 Day Protectant, read-out: Disease Control PHAKPA 1DP
[10] = 72 h, 3 Day Curative, read-out: Disease Control PHAKPA 3DC
[11] = 24 h, 1 Day Protectant, read-out: Disease Control SEPTTR 1 DP 121.5 g/H
[12] = 72 h, 3 Day Curative, read-out: Disease Control SEPTTR 3 DC 121.5 g/H

`COc1ccnc(C(=O)N[C@H]2CCC[C@H](OCC(C)C)[C@@H](Oc3ccccc3)[C@H](C)OC2=O)c1OCOC(=O)C(C)C` [F34] was tested, and the pest or weed control at 100 ppm [1] was 80 to 100%, the pest or weed control at 100 ppm [2, 7] was 80 to 100% and the pest or weed control at 100 ppm [2, 8] was 80 to 100%. The pest or weed control at 100 ppm [3] was 0 to 80%, the pest or weed control at 25 ppm [4, 9] was 80 to 100% and the pest or weed control at 25 ppm [4, 10] was 80 to 100%. It also gave a pest or weed control at 100 ppm [5] of 0 to 80% and a pest or weed control at 100 ppm [6] of 80 to 100%.
Work on `CCCO[C@H]1CCC[C@H](NC(=O)c2nccc(OC)c2OCOC(=O)C(C)C)C(=O)O[C@@H](C)[C@@H]1Oc1ccccc1` [F139] yielded a pest or weed control at 100 ppm [1] of 80 to 100%, a pest or weed control at 100 ppm [2, 7] of 80 to 100% and a pest or weed control at 100 ppm [2, 8] of 80 to 100%. The pest or weed control at 100 ppm [3] was 0 to 80%, the pest or weed control at 25 ppm [4, 9] was 80 to 100% and the pest or weed control at 25 ppm [4, 10] was 80 to 100%. The pest or weed control at 100 ppm [5] was 80 to 100% and the pest or weed control at 100 ppm [6] was 80 to 100%.
`COc1ccnc(C(=O)N[C@H]2CCC[C@H](Oc3ccccc3)[C@@H](OCC(C)C)[C@H](C)OC2=O)c1OCOC(C)=O` [F28] showed a pest or weed control at 100 ppm [1] of 80 to 100%, a pest or weed control at 100 ppm [2, 7] of 80 to 100% and a pest or weed control at 100 ppm [2, 8] of 80 to 100%. For the same compound, the pest or weed control at 100 ppm [3] was 0 to 80%, the pest or weed control at 25 ppm [4, 9] was 80 to 100% and the pest or weed control at 25 ppm [4, 10] was 0 to 80%. It also gave a pest or weed control at 100 ppm [5] of 0 to 80% and a pest or weed control at 100 ppm [6] of 80 to 100%.
In the case of `CCCO[C@H]1CCC[C@H](NC(=O)c2nccc(OC)c2OCOC(C)=O)C(=O)O[C@@H](C)[C@@H]1Oc1ccccc1` [F138], the pest or weed control at 100 ppm [1] is reported as 80 to 100%, the pest or weed control at 100 ppm [2, 7] is reported as 80 to 100% and the pest or weed control at 100 ppm [2, 8] is reported as 80 to 100%. For the same compound, the pest or weed control at 100 ppm [3] was 0 to 80%, the pest or weed control at 25 ppm [4, 9] was 80 to 100% and the pest or weed control at 25 ppm [4, 10] was 80 to 100%. For the same compound, the pest or weed control at 100 ppm [5] was 80 to 100% and the pest or weed control at 100 ppm [6] was 80 to 100%.
Work on `COc1ccnc(C(=O)N[C@H]2CCC[C@H](Oc3ccccc3)[C@@H](OC)[C@H](C)OC2=O)c1OCOC(C)=O` [F252] yielded a pest or weed control at 100 ppm [1] of 80 to 100%, a pest or weed control at 121.5 g/ha [2, 11] of 0 to 80% and a pest or weed control at 121.5 g/ha [2, 12] of 0 to 80%. The pest or weed control at 100 ppm [3] was under 0%, the pest or weed control at 25 ppm [4, 9] was 80 to 100% and the pest or weed control at 25 ppm [4, 10] was 0 to 80%. The pest or weed control at 100 ppm [5] was 0 to 80% and the pest or weed control at 100 ppm [6] was 80 to 100%.
`COc1ccnc(C(=O)N[C@H]2CCC[C@H](OCC(C)C)[C@@H](OC)[C@H](C)OC2=O)c1OCOC(C)=O` [F251] gave a pest or weed control at 100 ppm [1] of 80 to 100%, a pest or weed control at 121.5 g/ha [2, 11] of under 0% and a pest or weed control at 121.5 g/ha [2, 12] of under 0%. It also gave a pest or weed control at 100 ppm [3] of under 0%, a pest or weed control at 25 ppm [4, 9] of 80 to 100% and a pest or weed control at 25 ppm [4, 10] of 0 to 80%. The pest or weed control at 100 ppm [5] was 0 to 80% and the pest or weed control at 100 ppm [6] was 80 to 100%.
Compound `CCCO[C@H]1CCC[C@H](NC(=O)c2nccc(OC)c2OCOC(=O)C(C)C)C(=O)O[C@@H](C)[C@@H]1OC1CCCC1` [F154] has a pest or weed control at 100 ppm [1] of 80 to 100%, a pest or weed control at 100 ppm [2, 7] of 80 to 100% and a pest or weed control at 100 ppm [2, 8] of 80 to 100%. The pest or weed control at 100 ppm [3] was 80 to 100%, the pest or weed control at 25 ppm [4, 9] was 80 to 100% and the pest or weed control at 25 ppm [4, 10] was 80 to 100%. For the same compound, the pest or weed control at 100 ppm [5] was 80 to 100% and the pest or weed control at 100 ppm [6] was 80 to 100%.
`C=C(C)CO[C@H]1CCC[C@H](NC(=O)c2nccc(OC)c2OCOC(C)=O)C(=O)O[C@@H](C)[C@@H]1OC` [F250] gave a pest or weed control at 100 ppm [1] of 80 to 100%, a pest or weed control at 121.5 g/ha [2, 11] of under 0% and a pest or weed control at 121.5 g/ha [2, 12] of 0 to 80%. For the same compound, the pest or weed control at 100 ppm [3] was under 0%, the pest or weed control at 25 ppm [4, 9] was 0 to 80% and the pest or weed control at 25 ppm [4, 10] was under 0%. For the same compound, the pest or weed control at 100 ppm [5] was 0 to 80% and the pest or weed control at 100 ppm [6] was 0 to 80%.
Work on `CCCO[C@H]1CCC[C@H](NC(=O)c2nccc(OC)c2OCOC(C)=O)C(=O)O[C@@H](C)[C@@H]1OC1CCCC1` [F155] yielded a pest or weed control at 100 ppm [1] of 80 to 100%, a pest or weed control at 100 ppm [2, 7] of 80 to 100% and a pest or weed control at 100 ppm [2, 8] of 80 to 100%. For the same compound, the pest or weed control at 100 ppm [3] was 80 to 100%, the pest or weed control at 25 ppm [4, 9] was 80 to 100% and the pest or weed control at 25 ppm [4, 10] was 80 to 100%. It also gave a pest or weed control at 100 ppm [5] of 80 to 100% and a pest or weed control at 100 ppm [6] of 80 to 100%.
